Measurements as given in US20210317099A1, “SAFER, POTENT, AND FAST ACTING ANTIMICROBIAL AGENTS” (Purdue Research Foundation, priority 2020, published 2021).
Converted amounts (≈) assume the structure as drawn. Where two headings read alike, the source gives them in different places.

Experiments:
Assay type in all cases: cell-based
[1] = system: Staphylococcus aureus NRS384 (MRSA USA300); assay: Initial MIC screening, broth microdilution (CLSI); details: for MIC: Staphylococcus aureus NRS384 (MRSA USA300), broth microdilution, visual reading
Protocol: Method: The minimum inhibitory concentration (MIC) of the compounds 1-187, and control antibiotics (vancomycin, linezolid) was determined using the broth microdilution method against methicillin-resistant Staphylococcus aureus (MRSA) USA 300 using the broth microdilution method according to the guidelines outlined by the Clinical and Laboratory Standards Institute (CLSI). MRSA strain was cultivated on Tryptic soy agar plates and let grow for 24 hours at 37° C. under aerobic conditions. Bacterial suspension equivalent to 0.5 McFarland standard was prepared and diluted in cation-adjusted Mueller-Hinton broth (CAMHB) to attain a bacterial concentration of 5×10^5 CFU/ml and seeded in 96-well plates. The desired concentrations of each drug and compound were added in the first row of the 96-well plates and serially diluted to achieve a concentration gradient from 64 μg/ml to 0.5 μg/mL.

VRSA 10 = assay: MIC, Gram-positive panel; details: Staphylococcus aureus; VRSA 10; read-out: MIC
Protocol: (§1) Next, the spectrum of antibacterial activity of compounds 144, 148, 149, 151, 155, 158, and 187 was examined against a panel of clinically relevant Gram-positive bacterial pathogens including methicillin-resistant Staphylococcus aureus (MRSA), vancomycin-resistant Staphylococcus aureus (VRSA), vancomycin-resistant Enterococcus faecalis and Enterococcus faecium (VRE), and Streptococcus pneumoniae. Bacterial strains were grown aerobically overnight on tryptone soya agar plates at 37° C. Afterwards, a bacterial solution equivalent to 0.5 McFarland standard was prepared and diluted in cation-adjusted Mueller-Hinton broth (CAMHB) (for staphylococci). Enterococci and Streptococci were diluted in tryptone soya broth (TSB) to achieve a bacterial concentration of about 5×10^5 CFU/mL and seeded in 96-well plates. Compounds and control drugs were added in the first row of 96-well plates and serially diluted with media containing bacteria. Plates were then, incubated aerobically at 37° C. for 18-20 hours (except for S. pneumoniae, which was incubated at 37° C. in presence of 5% CO2 for 18-20 hours).

S. aureus NRS 107 = assay: MIC, Gram-positive panel; details: Staphylococcus aureus, NRS107; S. aureus NRS 107; read-out: MIC
Protocol: as §1

[2] = system: Enterococcus faecium ATCC 700221 (VRE); assay: MIC, Gram-positive panel; details: Enterococcus faecium ATCC 700221 (VRE); read-out: MIC
Protocol: as §1

MRSA NRS 385 = assay: MIC, Gram-positive panel; details: Staphylococcus aureus; MRSA NRS 385; read-out: MIC
Protocol: as §1

S. aureus ATCC 6538 = assay: MIC, Gram-positive panel; details: Staphylococcus aureus, ATCC6538; S. aureus ATCC 6538; read-out: MIC
Protocol: as §1

VRSA 12 = assay: MIC, Gram-positive panel; details: Staphylococcus aureus; VRSA 12; read-out: MIC
Protocol: as §1

MRSA NRS 123 = assay: MIC, Gram-positive panel; details: Staphylococcus aureus; MRSA NRS 123; read-out: MIC
Protocol: as §1

[3] = system: Methicillin-resistant S. pneumoniae ATCC 700677; assay: MIC, Gram-positive panel; details: Streptococcus pneumoniae, ATCC700677; Methicillin-resistant S. pneumoniae ATCC 700677; read-out: MIC
Protocol: as §1

[4] = system: Enterococcus faecalis ATCC 51299 (VRE); assay: MIC, Gram-positive panel; details: Enterococcus faecalis ATCC 51299 (VRE); read-out: MIC
Protocol: as §1

[5] = system: Methicillin-resistant S. epidermidis NRS101; assay: MIC, Gram-positive panel; details: Staphylococcus epidermidis; Methicillin-resistant S. epidermidis NRS101; read-out: MIC
Protocol: as §1

MRSA NRS 119 = assay: MIC, Gram-positive panel; details: Staphylococcus aureus; MRSA NRS 119; read-out: MIC
Protocol: as §1

S. pneumoniae ATCC 51916 = assay: MIC, Gram-positive panel; details: Streptococcus pneumoniae, ATCC51916; S. pneumoniae ATCC 51916; read-out: MIC
Protocol: as §1

MRSA NRS 386 = assay: MIC, Gram-positive panel; details: Staphylococcus aureus; MRSA NRS 386; read-out: MIC
Protocol: as §1

[6] = Staphylococcus aureus, read-out: MIC

Compound	MIC [1, 6] [µg/mL]	further results
C=C1C(=O)O[C@H](C2CCCCC2)[C@@H]1c1ccc(C)cc1 [Compound 93]	> 128	–
C=C1C(=O)O[C@@H]2c3c(ccc4ccccc34)C(C)C[C@H]12 (some centres unmarked) [Compound 94]	32 (≈ 121 µM)	–
CCN(CC)CC1C(=O)O[C@H](c2ccc3ccccc3c2)[C@H]1c1ccccc1 (some centres unmarked) [Compound 95]	> 128	–
CCN(CC)CC1C(=O)O[C@H](c2ccc3ccccc3c2)[C@@H]1c1ccccc1 (some centres unmarked) [Compound 96]	> 128	–
C=C1C(=O)O[C@H](c2ccccc2)[C@@H]1C [Compound 97]	16 (≈ 85 µM)	–
C=C1C(=O)O[C@H](c2ccc(N(C)C)cc2)[C@@H]1c1ccccc1 [Compound 98]	> 128	–
C=C1C(=O)O[C@H](c2cnc3ccccc3c2)[C@H]1c1ccccc1 [Compound 99]	32 (≈ 106 µM)	–
C=C1C(=O)O[C@H](c2c(F)cccc2F)[C@@H]1c1ccccc1 [Compound 100]	8 (≈ 27.9 µM)	–
C=C1C(=O)O[C@H](c2ccc([N+](=O)[O-])cc2)[C@@H]1C [Compound 102]	> 128	–
C=C1C(=O)O[C@H](c2ccccc2)[C@@H]1c1ccccc1 [Compound 103]	32 (≈ 128 µM)	–
C/C=C1/C(=O)O[C@H](c2ccc(C)cc2)[C@H]1C [Compound 104]	> 128	–
C=C1C(=O)O[C@H](c2cc3ccccc3cn2)[C@@H]1C [Compound 105]	16 (≈ 66.9 µM)	–
C=C1C(=O)O[C@H](C2CCCCC2)[C@@H]1c1ccccc1 [Compound 106]	> 128	–
C=C1C(=O)O[C@H](c2ccccc2)[C@@H]1c1ccc2ccccc2c1 [Compound 107]	–	MIC [1]: 8 µg/mL (≈ 26.6 µM)
CCN(CC)CC1C(=O)O[C@H](c2ccc3ccccc3c2)[C@H]1c1ccccc1 (some centres unmarked) [Compound 108]	–	MIC [1]: >128 µg/mL
C=C1C(=O)O[C@H](c2ccccc2)[C@@H]1c1ccc2ccccc2c1 [Compound 109]	–	MIC [1]: ≤1 µg/mL
C=C1C(=O)O[C@H](c2ccc3ccccc3c2)[C@H]1c1ccccc1 [Compound 110]	8 (≈ 26.6 µM)	–
C=C1C(=O)O[C@H](c2ccnc3ccccc23)[C@@H]1c1ccc2ccccc2c1 [Compound 111]	2 (≈ 5.69 µM)	–
C=C1C(=O)O[C@H](c2ccccc2)[C@@H]1c1ccc2ccccc2c1 [Compound 112]	–	MIC [1]: 64 µg/mL (≈ 213 µM)
C=C1C(=O)O[C@H](c2ccnc3ccccc23)[C@H]1c1ccccc1 [Compound 113]	–	MIC [1]: 16 µg/mL (≈ 53.1 µM)
C=C1C(=O)O[C@H](c2ccnc3ccccc23)[C@@H]1c1ccccc1 [Compound 114]	32 (≈ 106 µM)	–
C=C1C(=O)O[C@H](c2ccccc2)[C@H]1c1ccc2ccccc2c1 [Compound 115]	2 (≈ 6.66 µM)	–
C=C1C(=O)O[C@H](c2ccc3ccccc3n2)[C@@H]1c1ccccc1 [Compound 116]	> 128	–
C=C1C(=O)O[C@H](c2ccc(OC)cc2)[C@@H]1C [Compound 117]	> 128	–
C=C1C(=O)O[C@H](c2ccc(OC)cc2)[C@H]1C [Compound 118]	> 128	–
C=C1C(=O)O[C@H](c2cccnc2)[C@@H]1C [Compound 119]	> 128	–

Compound	MIC [1, 6] [µg/mL]	further results
C=C1C(=O)O[C@H](c2ccnc3ccccc23)[C@H]1c1ccccc1 [Compound 120]	–	MIC [1]: 128 µg/mL (≈ 425 µM)
C=C1C(=O)O[C@H](c2ccnc3ncccc23)[C@H]1c1ccccc1 [Compound 121]	32 (≈ 106 µM)	–
C=C1C(=O)O[C@H]2[C@H]1CC/C(C)=C/CC[C@@]1(C)O[C@@H]21 [Compound 125, Parthenolide, reference compound]	128 (≈ 515 µM)	–
C=C(C(=O)OC)C(c1ccccc1)C(O)c1ccccc1 (centres unmarked) [Compound 141]	16 (≈ 56.7 µM)	–
C=C(C(=O)OC)C(c1ccccc1)C(O)c1cccc2ccccc12 (centres unmarked) [Compound 142]	4 (≈ 12 µM)	–
C=C(C(=O)OC)C(c1ccccc1)C(O)c1ccc2ccccc2c1 (centres unmarked) [Compound 143]	16 (≈ 48.1 µM)	–
C=C(C(=O)OC)C(c1cccc2ccccc12)C(O)c1cccc2ccccc12 (centres unmarked) [Compound 145]	> 64	–
C=C(C(=O)OC)C(c1cccc2ccccc12)C(O)c1ccc2ccccc2c1 (centres unmarked) [Compound 146]	> 64	–
C=C(C(=O)OC)C(c1ccc2ccccc2c1)C(O)c1ccccc1 (centres unmarked) [Compound 147]	8 (≈ 24.1 µM)	–
C=C1C(=O)O[C@H](c2ccccc2)[C@@H]1c1ccccc1 [Compound 150]	–	MIC [1]: 16 µg/mL (≈ 63.9 µM)
C=C1C(=O)O[C@H](c2ccccc2)[C@@H]1c1ccc2ccccc2c1 [Compound 152]	–	MIC [1]: 8 µg/mL (≈ 26.6 µM)
C=C1C(=O)O[C@H](c2ccc3ccccc3c2)[C@@H]1c1ccccc1 [Compound 156]	16 (≈ 53.3 µM)	–
C=C1C(=O)O[C@H](c2ccc3ccccc3c2)[C@@H]1c1cccc2ccccc12 [Compound 157]	> 64	–
O=C1O[C@H](c2ccccc2)[C@H](c2ccccc2)C1CN1CCCCC1 (some centres unmarked) [Compound 159]	16 (≈ 47.7 µM)	–
O=C1O[C@H](c2ccccc2)[C@H](c2ccc3ccccc3c2)C1CN1CCCCC1 (some centres unmarked) [Compound 161]	16 (≈ 41.5 µM)	–
O=C1O[C@H](c2cccc3ccccc23)[C@H](c2ccccc2)C1CN1CCCCC1 (some centres unmarked) [Compound 162]	8 (≈ 20.8 µM)	–
O=C1O[C@H](c2cccc3ccccc23)[C@H](c2cccc3ccccc23)C1CN1CCCCC1 (some centres unmarked) [Compound 163]	> 64	–
O=C1O[C@H](c2cccc3ccccc23)[C@H](c2ccc3ccccc3c2)C1CN1CCCCC1 (some centres unmarked) [Compound 164]	> 64	–
O=C1O[C@H](c2ccc3ccccc3c2)[C@H](c2ccc3ccccc3c2)C1CN1CCCCC1 (some centres unmarked) [Compound 167]	2 (≈ 4.59 µM)	potency compared with control antibiotic ([1]; MRSA USA300, Table 1 assay): potency comparable to vancomycin
CN(C)CC1C(=O)O[C@H](c2cccc3ccccc23)[C@@H]1c1ccc2ccccc2c1 (some centres unmarked) [Compound 169]	4 (≈ 10.1 µM)	–
CCN(CC)CC1C(=O)O[C@H](c2ccccc2)[C@@H]1c1cccc2ccccc12 (some centres unmarked) [Compound 173]	8 (≈ 21.4 µM)	–
C=C1C(=O)OC(C2CCCCC2)C1c1ccccc1 (centres unmarked) [Compound 181]	> 64	–
O=C1OC(C2CCCCC2)[C@H](c2ccccc2)C1CN1CCCCC1 (some centres unmarked) [Compound 182]	32 (≈ 93.7 µM)	–
C=C1C(=O)OC(C2=CC=CCC2)C1C1CCCCC1 (centres unmarked) [Compound 185]	> 64	–
O=C1OC(c2ccccc2)C(C2CCCCC2)C1CN1CCCCC1 (centres unmarked) [Compound 186]	> 64	–
CC(=O)NC[C@H]1CN(c2ccc(N3CCOCC3)c(F)c2)C(=O)O1 [linezolid, reference compound]	–	MIC (VRSA 10): 1 µg/mL (≈ 2.96 µM); MIC (S. aureus NRS 107): 1 µg/mL (≈ 2.96 µM); MIC [2]: 1 µg/mL (≈ 2.96 µM); MIC (MRSA NRS 385): 2 µg/mL (≈ 5.93 µM); MIC (S. aureus ATCC 6538): 2 µg/mL (≈ 5.93 µM); MIC (VRSA 12): 1 µg/mL (≈ 2.96 µM); MIC (MRSA NRS 123): 2 µg/mL (≈ 5.93 µM); MIC [3]: 2 µg/mL (≈ 5.93 µM); MIC [4]: 2 µg/mL (≈ 5.93 µM); MIC [5]: 1 µg/mL (≈ 2.96 µM); MIC (MRSA NRS 119): > 16 µg/mL; MIC (S. pneumoniae ATCC 51916): 2 µg/mL (≈ 5.93 µM); MIC (MRSA NRS 386): 2 µg/mL (≈ 5.93 µM)
